Assay results from PubChem BioAssay AID328 (DTP/NCI, 2004).
Several values for one entry are separate records, joined by “and”; a condition that tells them apart may be missing. Identical values can stand only once. Toxic doses and inconclusive results are not listed. How the source made its calls: active means survival T/C of 150% or more; inactive means T/C below 125% in these data.

Tested on: BDF1 mice, P388 leukemia ip, median survival T/C
Assay: NCI In Vivo Anticancer Drug Screen. Data for tumor model P388 Leukemia (intraperitoneal) in B6D2F1 (BDF1) mice
Conditions: endpoint: median survival time, higher = longer survival
Outline: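 Antitumour effect was judged in vivo: survival in drug-treated mice, normalised to that of vehicle-dosed controls, gives the reported T/C.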

[1] = dose: 100.0 mg/kg/injection, schedule: Q04DX003 (ip), vehicle: Klucel (hydroxypropylcellulose) (HPC)
[2] = dose: 50.0 mg/kg/injection, schedule: Q01DX005 (ip), vehicle: saline with Tween-80
[3] = dose: 100.0 mg/kg/injection, schedule: Q01DX005 (ip), vehicle: saline with Tween-80
[4] = dose: 400.0 mg/kg/injection, schedule: Q04DX003 (ip), vehicle: Klucel (hydroxypropylcellulose) (HPC)
[5] = dose: 12.5 mg/kg/injection, schedule: Q01DX009 (ip), vehicle: Klucel (hydroxypropylcellulose) (HPC)
[6] = dose: 25.0 mg/kg/injection, schedule: Q01DX009 (ip), vehicle: Klucel (hydroxypropylcellulose) (HPC)
[7] = dose: 100.0 mg/kg/injection, schedule: Q01DX009 (ip), vehicle: saline with Tween-80
[8] = dose: 400.0 mg/kg/injection, schedule: Q04DX003 (ip), vehicle: saline with Tween-80
[9] = dose: 100.0 mg/kg/injection, schedule: Q04DX003 (ip), vehicle: saline with Tween-80
[10] = dose: 200.0 mg/kg/injection, schedule: Q04DX003 (ip), vehicle: saline with Tween-80
[11] = dose: 200.0 mg/kg/injection, schedule: Q01DX009 (ip), vehicle: saline with Tween-80
[12] = dose: 400.0 mg/kg/injection, schedule: Q01DX009 (ip), vehicle: saline with Tween-80

Measured: T/C

NC(=S)Nc1cccc(Cl)c1
inactive: dose: 25.0 mg/kg/injection, schedule: Q04DX003 (ip), vehicle: Klucel (hydroxypropylcellulose) (HPC) 118 % of control | dose: 50.0 mg/kg/injection, schedule: Q04DX003 (ip), vehicle: Klucel (hydroxypropylcellulose) (HPC) 104 % of control | [1] 104 % of control

COc1cc(-c2ccc(NC(=O)NC3CC3)c(OC)c2)ccc1NC(=O)NC1CC1
inactive: [2] 89 % of control | [3] 91 % of control

CC(=O)N1CSCC1C(=O)O (stereo not drawn)
inactive: [1] 100 % of control | dose: 200.0 mg/kg/injection, schedule: Q04DX003 (ip), vehicle: Klucel (hydroxypropylcellulose) (HPC) 100 % of control | [4] 100 % of control

CN(C)c1ccc(C=O)c(Br)c1
inactive: [5] 109 % of control | [6] 90 % of control | dose: 50.0 mg/kg/injection, schedule: Q01DX009 (ip), vehicle: Klucel (hydroxypropylcellulose) (HPC) 86 % of control | [1] 90 % of control | [4] 104 % of control

COC(=O)CCCC1=NC2=CC=CC3=NC(C)=NC(=N1)N23
inactive: dose: 25.0 mg/kg/injection, schedule: Q01DX009 (ip), vehicle: saline with Tween-80 110 % of control | [7] 99 % of control

CCOC(CCC#N)c1ccccc1 (stereo not drawn)
inactive: dose: 266.0 mg/kg/injection, schedule: Q04DX003 (ip), vehicle: saline with Tween-80 114 % of control | [8] 114 % of control | dose: 600.0 mg/kg/injection, schedule: Q04DX003 (ip), vehicle: saline with Tween-80 119 % of control

CN(C)c1ccc(/C=N/Nc2ncnc3nc[nH]c23)cc1
inactive: [9] 103 % of control | [10] 96 % of control | [8] 103 % of control

CC1(C)OC(C)(C)c2c1nnc(-c1ccccc1)[n+]2[O-]
inactive: [2] 91 % of control | [3] 98 % of control | dose: 200.0 mg/kg/injection, schedule: Q01DX005 (ip), vehicle: saline with Tween-80 88 % of control

[Cl][Rh][Cl].c1cn[nH]c1.c1cn[nH]c1.c1cn[nH]c1.c1cn[nH]c1
inactive: [5] 114 % of control | [6] 94 % of control

CCC[S-].CCC[S-].[C-]#[O+].[C-]#[O+].[C-]#[O+].[C-]#[O+].[Rh].[Rh]
inactive: [9] 122 % of control | [11] 90 % of control | [10] 122 % of control | [12] 100 % of control | [8] 122 % of control

O=C(/C=C/c1ccc(Br)cc1)c1ccc(Cl)cc1
inactive: [7] 100 % of control | [9] 100 % of control | [11] 110 % of control | [10] 100 % of control | [12] 100 % of control | [8] 90 % of control

CC1CC[N-]CC1.CC1CC[N-]CC1.CC1CC[N-]CC1.CC1CC[N-]CC1.[Pt+4]
inactive: dose: 0.09 mg/kg/injection, schedule: Q01DX009 (ip), vehicle: saline 88 % of control | dose: 0.19 mg/kg/injection, schedule: Q01DX009 (ip), vehicle: saline 93 % of control | dose: 0.23 mg/kg/injection, schedule: Q01DX009 (ip), vehicle: saline 88 % of control | dose: 0.25 mg/kg/injection, schedule: Q01DX009 (ip), vehicle: saline 102 % of control | dose: 0.39 mg/kg/injection, schedule: Q01DX009 (ip), vehicle: saline 92 % of control | dose: 0.5 mg/kg/injection, schedule: Q01DX009 (ip), vehicle: saline 102 % of control | dose: 0.65 mg/kg/injection, schedule: Q01DX009 (ip), vehicle: saline 92 % of control | dose: 0.78 mg/kg/injection, schedule: Q01DX009 (ip), vehicle: saline 88 % of control and 105 % of control | dose: 1.0 mg/kg/injection, schedule: Q01DX009 (ip), vehicle: saline 112 % of control | dose: 1.56 mg/kg/injection, schedule: Q01DX009 (ip), vehicle: saline 90 % of control | dose: 1.56 mg/kg/injection, schedule: Q04DX003 (ip), vehicle: saline 109 % of control | dose: 2.0 mg/kg/injection, schedule: Q01DX009 (ip), vehicle: saline 103 % of control | dose: 3.12 mg/kg/injection, schedule: Q04DX003 (ip), vehicle: saline 95 % of control

CCCNC(=O)Nc1ccc(C)c(Cl)c1
inactive: [9] 104 % of control | [10] 100 % of control | [8] 95 % of control
